Test results taken from ChEMBL document CHEMBL1122542, “A 1H NMR study of the interactions and conformations of rationally designed brodimoprim analogues in complexes with Lactobacillus casei dihydrofolate reductase” (J Med Chem, 1984).

What was measured:
[1] = molecular target: Dihydrofolate reductase (Lactobacillus casei) (UniProt P00381); details: Lacticaseibacillus casei
Description: Tested for pK value of histidine residue(His-28) of Dihydrofolate reductase from Lactobacillus casei

[2] = molecular target: T1, Dihydrofolate reductase (Lactobacillus casei, UniProt P00381); experiment: Inhibition constant of compound against Lactobacillus casei Dihydrofolate reductase; set-up: species or system Lacticaseibacillus casei
T1 sequence (P00381 whole entry): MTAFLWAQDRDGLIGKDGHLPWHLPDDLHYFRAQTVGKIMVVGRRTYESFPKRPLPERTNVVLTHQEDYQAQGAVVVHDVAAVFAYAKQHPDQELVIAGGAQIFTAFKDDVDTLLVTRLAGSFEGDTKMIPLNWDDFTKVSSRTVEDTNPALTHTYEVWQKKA

[3] = molecular target: T1, Dihydrofolate reductase; experiment: Inhibition constant of compound against Lactobacillus casei dihydrofolate reductase; set-up: species or system Lacticaseibacillus casei
[4] = molecular target: Dihydrofolate reductase (Lactobacillus casei) (UniProt P00381); experiment: Tested for pK value of histidine residue(His-28) of dihydrofolate reductase from Lactobacillus casei; format: functional; details: Lacticaseibacillus casei

Chain of Dihydrofolate reductase (Lactobacillus casei) (P00381 whole entry): as above

SMILES	pK [1]	Ki [2]	Ki [3]	pK [4]
COc1cc(Cc2cnc(N)nc2N)cc(OCCC(=O)NC(CCC(=O)O)C(=O)O)c1Br (stereo unspecified)	7.12	1.7 nM		
COc1cc(Cc2cnc(N)nc2N)cc(OCCCCCC(=O)O)c1Br		0.4 nM		
COc1cc(Cc2cnc(N)nc2N)cc(OC)c1Br [BRODIMOPRIM]			11.3 nM	6.8
COc1cc(Cc2cnc(N)nc2N)cc(OCCCNCCC(=O)O)c1Br			5.3 nM	6.71
COc1cc(Cc2cnc(N)nc2N)cc(OCCCC(CCC(=O)O)C(=O)O)c1Br (stereo unspecified)	7.8	< 0.01 nM		
COc1cc(Cc2cnc(N)nc2N)cc(OCCCCCCC(=O)O)c1Br	6.8	0.6 nM		
COc1cc(Cc2cnc(N)nc2N)cc(OCCCCC(=O)O)c1Br	6.83	0.2 nM		
COc1cc(Cc2cnc(N)nc2N)cc(OCCCC(=O)O)c1Br		0.9 nM		
COc1cc(Cc2cnc(N)nc2N)cc(OCCC(=O)NCC(=O)O)c1Br	6.71	4.1 nM		
